Laboratory results published in patent publication US8283339B2, “Vinyl phosphonate lysophosphatidic acid receptor antagonists” (University of Virginia Patent Foundation, priority 2006, dated 2012).
Like-named read-outs stand apart in the source and are kept apart here.

Legend:
[1] = system: osteo-tropic subclone of the human breast CA line, MDA MB-231; details: athymic (nude) mice injected with MDA MB-231 subclone; as described in Boucharaba et al. (2006); cited from earlier work
[2] = system: Adult male Sprague Dawley rats; assay: Chronic constriction injury (CCI) model of neuropathic pain: thermal hyperalgesia and mechanical allodynia; assay type: in vivo, rat
Excerpt: The chronic constriction injury (CCI) model of neuropathic pain (Bennett and Xie, Pain, 33 p 87-107 (1988)) was used to assess the efficacy of test compound VPC51299 in relieving thermal hyperalgesia and mechanical allodynia. Adult male Sprague Dawley rats were anesthetized and their sciatic nerves exposed at the level of mid-thigh. Four loose ligations of chromic gut suture were placed around the sciatic nerve and the wound was closed. For sham surgeries, the sciatic nerve was mobilized and the wound closed without ligation. The animals' responses to mechanical and thermal stimuli were assessed prior to CCI and at days 1, 3, 5, 7, and 14 after CCI.
Thermal hyperalgesia was measured using a Plantar Test Apparatus (IITC Inc, Woodland Hills, Calif.). Rats were placed on a warmed glass surface, allowed to acclimate, and a thermal stimulus was applied to the plantar surface of the hind paw. Paw withdrawal latency (PWL) is defined as the time from stimulus application to paw withdrawal. Results are illustrated in FIG. 9A.
Mechanical allodynia was measured two ways. First, a size 5.18 Von Frey monofilament (corresponding to 15.0 g.) was applied to the plantar surface of the hind paw (Touch Test Sensory Evaluator Kit from Stoelting Co., Wood Dale, Ill.). The number of paw withdrawals out of 10 three second trials was recorded. Results are illustrated in FIG. 9B. Second, the maximum withdrawal threshold was assessed using an electronic von Frey Anesthesiometer (IITC Inc, Woodland Hills, Calif.). Force was applied to the plantar surface of the hindpaw until the rat withdrew its paw. The maximum force applied to the paw before withdrawal was recorded. Results are illustrated in FIG. 9C.

[3] = system: LPA inhibition of adenylyl cyclase activation in rat glioma C62B cells; assay: LPA-driven adenylyl cyclase inhibition in rat glioma cells (relief by antagonist); assay type: cell-based; details: isoproterenol-stimulated cAMP accumulation, all in a dose-dependent manner, FIG. 3
Excerpt: FIG. 3 is a graphic representation of LPA-driven adenylyl cyclase inhibition in C6 glioma cells.
Rat glioma C62B cells accumulate cAMP in response to isoproterenol, and this stimulation of adenylyl cyclase is blocked by LPA. As shown, the LPA inhibition of adenylyl cyclase activation is relieved by addition of VPC51299, VPC52172, VPC52173, and VPC52178, all in a dose-dependent manner. Results are illustrated in FIG. 3.

[4] = system: osteo-tropic subclone of the human breast CA line, MDA MB-231; assay: Lytic bone metastasis in athymic (nude) mice; assay type: in vivo, mouse; details: athymic (nude) mice injected with MDA MB-231 subclone; treated for two weeks; FIG. 13
Experimental: Mice are tested for assessing lytic bone metastasis. Athymic (nude) mice were injected with a osteo-tropic subclone of the human breast CA line, MDA MB-231. After two weeks the bones are scanned to assess the cancer in the bone. The cancer is treated for two weeks and the lesions are imaged. […] 103, pp. 9643-9648. The results are illustrated in FIG. 13.

Cc1noc(-c2ccc(CSCCC(=O)O)cc2)c1NC(=O)OC(C)c1ccccc1Cl (stereo not shown) [Kil6425]
size of lytic bone lesions in treated mice [1]: significantly smaller

CCCCCCCCCCCCCCCC(=O)N[C@@H](/C=C/P(=O)(O)O)Cc1ccc(OCc2cc(OCC(F)(F)F)ccn2)cc1 [VPC51299, (3R)-(3-Hexadecanoylamino-4-{4-[4-(2,2,2-trifluoro-ethoxy)-pyridin-2-ylmethoxy]-phenyl}-trans-but-1-enyl)-phosphonic Acid]
paw withdrawal latency (thermal stimulus), slower than vehicle treated rats ([2]; day 5, after 5 days of treatment, difference vs vehicle treated rats, Plantar Test): 3.1 s
withdrawal threshold, higher than vehicle treated rats ([2]; day 5, after 5 days of treatment, electronic von Frey Anesthesiometer, difference vs vehicle treated rats): 4.0 g
number of paw withdrawals (out of 10 trials), fewer than vehicle treated rats ([2]; day 5, after 5 days of treatment, size 5.18 Von Frey monofilament (15.0 g), difference vs vehicle treated rats): 3.2 times
efficacy in relieving thermal hyperalgesia and mechanical allodynia associated with CCI ([2]; rats with sciatic nerve ligation (CCI), FIGS. 9A-9C): effective in relieving some of the thermal hyperalgesia and mechanical allodynia
relief of LPA inhibition of adenylyl cyclase activation [3]: relieved
size of lytic bone lesions in treated mice [4]: significantly smaller

CCCCCCCCCCCC(=O)N[C@@H](/C=C/P(=O)(O)O)Cc1ccc(OCc2cc(OCC(F)(F)F)ccn2)cc1 [VPC52172, (3R)-(3-Dodecanoylamino-4-{4-[4-(2,2,2-trifluoro-ethoxy)-pyridin-2-ylmethoxy]-phenyl}-trans-but-1-enyl)-phosphonic Acid]
relief of LPA inhibition of adenylyl cyclase activation [3]: relieved

CCCCCCCCCC(=O)N[C@@H](/C=C/P(=O)(O)O)Cc1ccc(OCc2cc(OCC(F)(F)F)ccn2)cc1 [VPC52173, (3R)-(3-Decanoylamino-4-{4-[4-(2,2,2-trifluoro-ethoxy)-pyridin-2-ylmethoxy]-phenyl}-trans-but-1-enyl)-phosphonic Acid]
relief of LPA inhibition of adenylyl cyclase activation [3]: relieved

CCCCCCCC(=O)N[C@@H](/C=C/P(=O)(O)O)Cc1ccc(OCc2cc(OCC(F)(F)F)ccn2)cc1 [VPC52178, (1R)-(3-octanoylamino-4-{4-[4-(2,2,2-trifluoro-ethoxy)-pyridin-2-ylmethoxy]-phenyl}-trans-but-1-enyl)-phosphonic Acid]
relief of LPA inhibition of adenylyl cyclase activation [3]: relieved
